According to PubChem BioAssay AID2060483 (Molecular Pharmacology Branch, DTP, NCI, 2025):
pIC50: −log10 of the molar value. Values joined by “and” are separate entries in the source; they are usually repeats but may differ in a detail not shown here. Identical values can stand only once.

Tested on: K24384-001-R-PDC complex spheroids, viability
Experiment: Anticancer human tumor K24384-001-R-PDC patient-derived pancreatic adenocarcinoma cell line growth inhibition [GQUAD]
Settings: for viability, T/C: stronger effect = lower value
Text: DNA G-quadruplex Stabilizer Agents in Combinations in Complex Spheroids
A high-throughput screen of multi-cell type tumor spheroids was designed to identify active combinations of DNA G-quadruplex stabilizer agents and targeted small molecules. Complex spheroids include a stromal component modeled by human endothelial cells (HUVEC) and fibroblasts modeled by human mesenchymal stem cells (MSCs). The concentration ranges selected for each drug and investigational agent were based upon clinically achievable concentrations if the clinical Cmax of the agent was known.
Compounds. The drugs and investigational agents: pidnarulex (CX-5461; NSC782164), APTO-253 (NSC789042), BRACO-19 (NSC847499), peposertib (NSC802822), ceralasertib (NSC780249), elimusertib (NSC800525), camonsertib (NSC841442), AZD-1390 (NSC803789), olaparib (NSC753686), talazoparib (NSC767125), ART-558 (NSC835418), sotorasib (NSC818433), MRTX-1133 (NSC836407), SN-38 (NSC673596), topotecan (NSC609699), etoposide (NSC141540), doxorubicin (NSC123127), gemcitabine (NSC613327), 5-fluorouracil (NSC19893), paclitaxel (NSC125973), vemurafenib (NSC761431), panobinostat (NSC761190), R-306465 (JNJ-16241199; NSC773264), adavosertib (NSC754352), TP-3654 (NSC805149), carboplatin (NSC241240), KSQ-4279 (NSC840948), and staurosporine (NSC755774) were obtained from the National Cancer Institute (NCI) Developmental Therapeutics Program Chemical Repository (34). The FDA-approved anticancer drug set is available from the NCI Developmental Therapeutics Program. […] The stock solutions were prepared in dimethyl sulfoxide (DMSO, Sigma-Aldrich, St. Louis, MO, cat. D2650) at 800-fold the tested concentration and stored at -70 degrees C prior to their use. All drugs and investigational agents were tested over a range starting from a high concentration at or near the clinical Cmax and decreasing in half-log increments. If the clinical Cmax for an agent had not been determined, the highest concentration tested was 10 microM.
2.3 Cell Culture. All cells were maintained in an incubator at 37 degrees C and 5% CO2 with 95% humidity. The PDC lines were cultured according to standard operating procedures established by the NCI PDMR. All PDCs were thawed and cultured in Matrigel-coated flasks prepared with a working solution of 1X Ham's F-12 nutrient mix, without supplementation (Invitrogen, cat. 11765054), 100 U/mL penicillin-streptomycin (Invitrogen, cat. 15140122), and 2.5% Matrigel (Corning Inc., cat. 354248) for the first three passages. The 857933-349-R-J2-PDC line was cultured in 6C/Colon 1B media, which includes advanced DMEM/F-12 (Thermo Fisher Scientific, cat. 12634028), 10 mM HEPES (Thermo Fisher Scientific, cat. 15630080), 1X GlutaMAX supplement (Thermo Fisher Scientific, cat. 35050061), 0.1 mg/mL primocin (InvivoGen, cat. ant-pm-2), 10% defined fetal bovine serum, heat inactivated (HyClone Laboratories Inc., cat. SH30070.03HI), 50% L-WRN conditioned media (ATCC, cat. CRL-3276), 1.25 mM N-Acetyl-L-cysteine (Sigma-Aldrich, cat. A9165), 10 mM nicotinamide (Sigma-Aldrich, cat. N0636), 1X B-27 supplement (Thermo Fisher Scientific, cat. 17504044), 1X N-2 supplement (Thermo Fisher Scientific, cat. 17502048), 10 microM Y-27632 dihydrochloride (Tocris Bioscience, cat. 1254), and 50 ng/mL human EGF recombinant protein (Thermo Fisher Scientific, cat. PHG0311). The 485176-168-R4-J1-PDC line was cultured in Panc media, which includes all 6C/Colon 1B media components plus 100 ng/mL human FGF-10 (Thermo Fisher Scientific, cat. 100-26), 500 nM SB-431542 (Selleckchem, cat. S1067), and gastrin (Tocris, cat. 3006).
[…]

[1] = curve of first compound, second compound 0.0316 µM
[2] = curve of first compound, second compound 0.1 µM
[3] = curve of first compound, second compound 0.316 µM
[4] = curve of first compound, second compound 1 µM
[5] = curve of first compound, second compound 3.16 µM
[6] = curve of first compound, second compound 10 µM
[7] = second compound 0.0316 µM, first compound 0.0316 µM
[8] = second compound 0.0316 µM, first compound 0.1 µM
[9] = second compound 0.0316 µM, first compound 0.316 µM
[10] = second compound 0.0316 µM, first compound 1 µM
[11] = second compound 0.0316 µM, first compound 3.16 µM
[12] = second compound 0.0316 µM, first compound 10 µM
[13] = second compound 0.1 µM, first compound 0.0316 µM
[14] = second compound 0.1 µM, first compound 0.1 µM
[15] = second compound 0.1 µM, first compound 0.316 µM
[16] = second compound 0.1 µM, first compound 1 µM
[17] = second compound 0.1 µM, first compound 3.16 µM
[18] = second compound 0.1 µM, first compound 10 µM
[19] = second compound 0.316 µM, first compound 0.0316 µM
[20] = second compound 0.316 µM, first compound 0.1 µM
[21] = second compound 0.316 µM, first compound 0.316 µM
[22] = second compound 0.316 µM, first compound 1 µM
[23] = second compound 0.316 µM, first compound 3.16 µM
[24] = second compound 0.316 µM, first compound 10 µM
[25] = second compound 1 µM, first compound 0.0316 µM
[26] = second compound 1 µM, first compound 0.1 µM
[27] = second compound 1 µM, first compound 0.316 µM
[28] = second compound 1 µM, first compound 1 µM
[29] = second compound 1 µM, first compound 3.16 µM
[30] = second compound 1 µM, first compound 10 µM
[31] = second compound 3.16 µM, first compound 0.0316 µM
[32] = second compound 3.16 µM, first compound 0.1 µM
[33] = second compound 3.16 µM, first compound 0.316 µM
[34] = second compound 3.16 µM, first compound 1 µM
[35] = second compound 3.16 µM, first compound 3.16 µM
[36] = second compound 3.16 µM, first compound 10 µM
[37] = second compound 10 µM, first compound 0.0316 µM
[38] = second compound 10 µM, first compound 0.1 µM
[39] = second compound 10 µM, first compound 0.316 µM
[40] = second compound 10 µM, first compound 1 µM
[41] = second compound 10 µM, first compound 3.16 µM
[42] = second compound 10 µM, first compound 10 µM
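Note: spheroids exposed to compounds for seven days.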

SMILES: COc1ccc([C@@H](O)c2cc(-c3ncnc4cc(N5CCOCC5)ccc34)c(F)cc2Cl)nn1 + Cc1cnc(CNC(=O)c2c(=O)c3ccc(N4CCCN(C)CC4)nc3n3c2sc2ccccc23)cn1
- pIC50 [1]: 5.91
- pIC50 [2]: 6.30
- pIC50 [3]: 6.92
- pIC50 [4]: > 7.50
- pIC50 [5]: > 7.50
- pIC50 [6]: > 7.50
- viability, T/C [7]: 89.9%
- viability, T/C [8]: 81.5%
- viability, T/C [9]: 70.8%
- viability, T/C [10]: 45.9%
- viability, T/C [11]: 43.8%
- viability, T/C [12]: 23.6%
- viability, T/C [13]: 57.2%
- viability, T/C [14]: 68.7%
- viability, T/C [15]: 46.5%
- viability, T/C [16]: 42.3%
- viability, T/C [17]: 39.1%
- viability, T/C [18]: 17.6%
- viability, T/C [19]: 48.6%
- viability, T/C [20]: 57.6%
- viability, T/C [21]: 43.1%
- viability, T/C [22]: 41.5%
- viability, T/C [23]: 34%
- viability, T/C [24]: 12.6%
- viability, T/C [25]: 40.5%
- viability, T/C [26]: 59.9%
- viability, T/C [27]: 35.4%
- viability, T/C [28]: 34.1%
- viability, T/C [29]: 21.7%
- viability, T/C [30]: 12.7%
- viability, T/C [31]: 36.7%
- viability, T/C [32]: 41.9%
- viability, T/C [33]: 33.4%
- viability, T/C [34]: 29.8%
- viability, T/C [35]: 24.6%
- viability, T/C [36]: 10.2%
- viability, T/C [37]: 28.1%
- viability, T/C [38]: 29.9%
- viability, T/C [39]: 27.4%
- viability, T/C [40]: 27.4%
- viability, T/C [41]: 16.8%
- viability, T/C [42]: 0.52%

SMILES: Cn1ncnc1[C@H]1c2n[nH]c(=O)c3cc(F)cc(c23)N[C@@H]1c1ccc(F)cc1
- viability, T/C (compound 0.000999 µM): 112% and 100% and 116%
- viability, T/C (compound 0.00316 µM): 106% and 95% and 96.9%
- viability, T/C (compound 0.00999 µM): 109% and 76.1% and 136%
- viability, T/C (compound 0.0316 µM): 79.5% and 80.1% and 87.8%
- viability, T/C (compound 0.0999 µM): 88.6% and 88.1% and 99.9%
- viability, T/C (compound 0.316 µM): 85.2% and 80.7% and 93.3%
- pIC50 (curve of compound): < 6.50

SMILES: O=c1[nH]cc(F)c(=O)[nH]1 + Cc1[nH]c2ccc(F)cc2c1-c1nc2c3cccnc3c3ncccc3c2[nH]1
- pIC50 [1]: 5.36
- pIC50 [2]: < 5.00
- pIC50 [3]: 5.93
- pIC50 [4]: 5.51
- pIC50 [5]: 6.32
- pIC50 [6]: 6.24
- viability, T/C [7]: 98.4%
- viability, T/C [8]: 77.9%
- viability, T/C [9]: 76.1%
- viability, T/C [10]: 55.5%
- viability, T/C [11]: 54.9%
- viability, T/C [12]: 44.4%
- viability, T/C [13]: 88.4%
- viability, T/C [14]: 92.7%
- viability, T/C [15]: 86.8%
- viability, T/C [16]: 55.6%
- viability, T/C [17]: 62.4%
- viability, T/C [18]: 39.6%
- viability, T/C [19]: 97%
- viability, T/C [20]: 90.9%
- viability, T/C [21]: 66.3%
- viability, T/C [22]: 53.3%
- viability, T/C [23]: 43.2%
- viability, T/C [24]: 39.9%
- viability, T/C [25]: 88.2%
- viability, T/C [26]: 93.1%
- viability, T/C [27]: 66.7%
- viability, T/C [28]: 59.9%
- viability, T/C [29]: 54.8%
- viability, T/C [30]: 36.3%
- viability, T/C [31]: 69.4%
- viability, T/C [32]: 56.5%
- viability, T/C [33]: 51.9%
- viability, T/C [34]: 53%
- viability, T/C [35]: 35.5%
- viability, T/C [36]: 43%
- viability, T/C [37]: 65.3%
- viability, T/C [38]: 53.6%
- viability, T/C [39]: 62.3%
- viability, T/C [40]: 40.7%
- viability, T/C [41]: 33.8%
- viability, T/C [42]: 31.7%
